# Reference: patent US20260265305A1, “POLYPEPTIDE DERIVATIVE FOR ORAL DELIVERY” (Hangzhou Sciwind Biosciences Co., Ltd., priority 2023, published 2026)
# Peptide text beside a SMILES is read from it. * marks the point of attachment. C20 diacid = O=C(O)CCCCCCCCCCCCCCCCCCC(=O)*; C18 diacid = O=C(O)CCCCCCCCCCCCCCCCC(=O)*; Inp = O=C(O)C1CCNCC1
# Legend:
# [1] = Heat accelerated stability assay of polypeptide solutions (40° C., pH about 7.4), reversed phase chromatography; assay type: physicochemical; settings: 40° C.; for Concentration change on 7 d / Concentration change on 26 d: pH about 7.4, 1 mg/mL; for Concentration change on 7 d / Purity change on 7 d: Day 7; for Concentration change on 26 d / Purity change on 26 d: Day 26; for Purity change on 7 d / Purity change on 26 d: reversed phase chromatography 214 nm; for Purity change on 7 d: purity on 7 d − purity on 0 d; for Purity change on 26 d: purity on 26 d − purity on 0 d
# Description: A stability test chamber (BINDER GmbH), a 0.01 mg-readability balance (METTLER TOLEDO), a pH meter (METTLER TOLEDO), a biosafety cabinet (ESCO), T2G-II small-sized motor-driven capping machine (Changsha zhongya pharmaceutical equipment co. LTD), a high-speed refrigerated centrifuge (Eppendorf), a sterilizer cabinet (Shinva Medical), Agilent 1260 high-performance liquid chromatographer, and Sepax Bio-C18 4.6*250 mm 3 μm 200 Å reversed phase column were used.
# Reagents and consumables included: ultrapure water (18.2 MΩ, self-made), acetonitrile (HPLC grade), trifluoroacetic acid (HPLC grade), sodium dihydrogen phosphate (pharmaceutical grade, Hunan Jiudian Hongyang Pharmaceutical Co., Ltd), hydrochloric acid (pharmaceutical grade, Hunan Er-Kang Pharmaceutical Co., Ltd), sodium hydroxide (Analytical Reagent grade, Hushi®, Sinopharm Chemical Reagent Co., Ltd), vials, rubber stoppers, disposable syringes, and sterile filters.
# The lyophilized powder (1 mg/mL) of the polypeptide derivative prepared in accordance with the method of Example 1 was mixed with sodium dihydrogen phosphate (1.42 mg/mL) and dissolved in ultrapure water in the indicated mass-volume ratios. After adjusting pH to about 7.4 with hydrochloric acid/sodium hydroxide, the solution was filtered into a sterilized vial in a clean bench using a 0.22 μm sterile filter. The vial was then capped and placed into the stability test chamber at 40° C. Detections were made on Days 7 (7d) and 26 (26d), and during the assay, changes in the characteristics and properties of the polypeptide were observed and recorded. The sample was then centrifuged for 3 min at 10,000 rpm at 4° C., and the supernatant was transferred to a liquid phase sample vial for detecting the concentration and purity of the polypeptides using liquid phase chromatography described as below, wherein the concentration of the polypeptide=peak area/injection volume/extinction coefficient/60×flow rate, and the purity of the polypeptide=target peak area/total peak area×100%.
# Conditions of the reversed phase chromatography Flow rate: 1.0 ml/min; Autosampler temperature: 15° C.; Column temperature: 25° C.; Detection wavelengths: 280 nm and 214 nm; Mobile phase A: 100% H2O+0.05% TFA; Mobile phase B: 100% ACN; and Gradient of elution listed in Table 6: […]
# amylin receptor (hAMY3R) = target: T1, amylin receptor (hAMY3R) (Homo sapiens, UniProt O60896+P30988); experiment: Amylin receptor agonism testing, CRE-luciferase assay in stably transfected CHO-K1/Ga15/AMY3 cells; assay type: cell-based; settings: relative to D1 as benchmark
# T1 construct: host or cells: CHO-K1/Ga15/AMY3 cells, further stably transfected with a CRE-luciferase plasmid
# T1 sequence (P30988 25-474): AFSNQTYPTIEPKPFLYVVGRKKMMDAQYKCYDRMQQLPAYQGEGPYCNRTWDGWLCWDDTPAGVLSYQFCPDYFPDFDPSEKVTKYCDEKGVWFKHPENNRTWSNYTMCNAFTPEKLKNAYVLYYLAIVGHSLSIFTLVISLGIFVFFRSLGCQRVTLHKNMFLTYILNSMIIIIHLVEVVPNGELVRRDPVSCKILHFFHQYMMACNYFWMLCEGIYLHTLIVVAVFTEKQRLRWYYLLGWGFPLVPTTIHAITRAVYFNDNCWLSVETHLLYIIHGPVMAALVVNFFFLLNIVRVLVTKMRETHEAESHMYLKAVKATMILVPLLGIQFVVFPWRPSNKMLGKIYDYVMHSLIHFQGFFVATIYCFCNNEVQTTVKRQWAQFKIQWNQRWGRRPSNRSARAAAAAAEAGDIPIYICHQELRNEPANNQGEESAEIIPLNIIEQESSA
# T1 sequence (O60896 24-148): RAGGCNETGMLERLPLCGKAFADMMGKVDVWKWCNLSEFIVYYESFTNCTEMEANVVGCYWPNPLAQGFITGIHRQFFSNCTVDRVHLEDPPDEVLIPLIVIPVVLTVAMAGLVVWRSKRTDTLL
# [2] = target: T2, calcitonin receptor (hCTR) (Homo sapiens, UniProt P30988); experiment: Calcitonin receptor agonism, CRE-luciferase assay in stably transfected CHO-K1/CALCR/Ga15 cells; assay type: cell-based; settings: for EC50: incubation of 24 hours, Table 4, read-out: EC50, activity against the calcitonin receptor in cells; for Fold change in activity against hCTR: relative to D1 as benchmark
# T2 construct: host or cells: CHO-K1/CALCR/Ga15 cells, further stably transfected with a CRE-luciferase plasmid
# T2 sequence (P30988 25-474): T1 sequence (P30988 25-474)
# Description: Using the standard protocol, CHO-K1/CALCR/Ga15 cells (purchased from GenScript, with the calcitonin receptor constructed already) were transfected with a plasmid containing a luciferase expression cassette driven by multiple copies of cAMP response elements (CREs). The cells were cultured in an F12 medium containing 200 ug/mL Zeocin, 2 ug/mL puromycin, and 100 ug/mL hygromycin to afford a stably transfected calcitonin receptor/CRE-luc cell line.
# To each well of a white 96-well plate was added 50 μL of the tested sample solution at a respective concentration.
# The stably transfected calcitonin receptor/CRE-luc CHO cells were resuspended in the growth medium at a certain density, and 50 μL of the cell suspension was added at a density of about 20,000 cells per well to the white 96-well plate containing the tested sample solution. After incubation of 24 hours at 37° C. and 5% CO2, 100 μL of a Luciferase substrate was added to each well, incubated for 3 minutes, and finally was tested for luminescence on SpectraMax L (Molecular Devices) with the software SoftMax Pro 7.0.3 GxP. A standard curve was plotted using the fluorescent intensities for calculation of EC50.
Concentration change on 7 d [1] [%],Concentration change on 26 d [1] [%],Purity change on 7 d [1] [%],Purity change on 26 d [1] [%],Fold change in activity against hAMY3R (amylin receptor (hAMY3R)),EC50 [2] [pM],Fold change in activity against hCTR [2],Structure (SMILES)
−2.883,−3.036,3.42,2.18,0.439,376,0.229,CC(C)C[C@H](NC(=O)[C@H](CCCNC(=N)N)NC(=O)CNC(=O)[C@H](CC(C)C)NC(=O)[C@@H](NC(=O)[C@H](C)NC(=O)[C@@H](NC(=O)[C@H](CO)NC(=O)[C@H](CC(C)C)NC(=O)[C@H](CCC(N)=O)NC(=O)[C@H](CO)NC(=O)[C@H](C)NC(=O)C1CCN(C(=O)CCCCCCCCCCCCCCCCCCC(=O)O)CC1)[C@@H](C)O)C(C)C)C(=O)N[C@@H](CO)C(=O)N[C@@H](CC(=O)O)C(=O)N[C@@H](CCC(=O)O)C(=O)N[C@@H](CC(C)C)C(=O)N[C@@H](Cc1c[nH]cn1)C(=O)N[C@@H](CCCNC(=N)N)C(=O)N[C@@H](CC(C)C)C(=O)N[C@@H](CCC(N)=O)C(=O)N[C@@H](CC(=O)O)C(=O)N[C@@H](Cc1ccc(O)cc1)C(=O)N1CCC[C@H]1C(=O)N[C@@H](CCCNC(=N)N)C(=O)N[C@H](C(=O)N[C@@H](CC(=O)O)C(=O)N[C@H](C(=O)NCC(=O)N[C@@H](CO)C(=O)NCC(=O)N[C@@H](CO)C(=O)N1CCC[C@H]1C(N)=O)C(C)C)[C@@H](C)O [M16] ({C20 diacid-Inp}-ASQLSTAVLGRLSDELHRLQDYPRTDVGSGSP-NH2)
−3.472,−9.840,1.01,−2.93,2.250,71,1.211,CC(C)C[C@H](NC(=O)[C@H](CCCNC(=N)N)NC(=O)CNC(=O)[C@H](CC(C)C)NC(=O)[C@@H](NC(=O)[C@H](C)NC(=O)[C@@H](NC(=O)[C@H](CO)NC(=O)[C@H](CC(C)C)NC(=O)[C@H](CCC(N)=O)NC(=O)[C@H](CO)NC(=O)[C@H](C)NC(=O)[C@H](CCC(=O)O)NC(=O)CCCCCCCCCCCCCCCCC(=O)O)[C@@H](C)O)C(C)C)C(=O)N[C@@H](CO)C(=O)N[C@@H](CC(=O)O)C(=O)N[C@@H](CCC(=O)O)C(=O)N[C@@H](CC(C)C)C(=O)N[C@@H](Cc1c[nH]cn1)C(=O)N[C@@H](CCCNC(=N)N)C(=O)N[C@@H](CC(C)C)C(=O)N[C@@H](CCC(N)=O)C(=O)N[C@@H](CC(=O)O)C(=O)N[C@@H](Cc1ccc(O)cc1)C(=O)N1CCC[C@H]1C(=O)N[C@@H](CCCNC(=N)N)C(=O)N[C@H](C(=O)N[C@@H](CC(=O)O)C(=O)N[C@H](C(=O)NCC(=O)N[C@@H](CO)C(=O)NCC(=O)N[C@@H](CO)C(=O)N1CCC[C@H]1C(N)=O)C(C)C)[C@@H](C)O [M11] ({C18 diacid}-EASQLSTAVLGRLSDELHRLQDYPRTDVGSGSP-NH2)
